Reference: US9499493B2, “2,4-pyrimidinediamine compounds and their uses” (Rigel Pharmaceuticals, Inc., priority 2002, dated 2016)

Assays:
[1] = system: cultured human mast cells (CHMC); experiment: CHMC low cell density IgE activation: tryptase assay; type: cell-based; settings: anti-IgE
In short: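 CHMC resuspended in pre-warmed MT buffer at 1000-1500 cells/well (donor-dependent) and preincubated 1 hr at 37° C, then stimulated with anti-IgE for 30 min at 37° C; unstimulated wells got MT alone. Supernatant tryptase activity read with tryptase substrate after 30 min at room temperature.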

[2] = system: cultured human mast cells (CHMC); experiment: CHMC low cell density ionomycin activation: tryptase assay; type: cell-based

Compound	IC50 [1] [µM]	IC50 [2] [µM]	IC50 ([1]; Homo sapiens, Mast cell) [µM]	IC50 ([2]; Homo sapiens, Mast cell) [µM]
CNC(=O)COc1cccc(Nc2ncc(F)c(Nc3ccc(C)c(OC)c3)n2)c1 [R926902, 5-Fluoro-N2-[3-[(N-methylamino)carbonylmethyleneoxy]phenyl]-N4-(3-methoxy-4-methylphenyl)-2,4-pyrimidinediamine]	1.37	4.59		
COc1ccc(Nc2nc(Nc3cccc(OCC(=O)NCC(O)CO)c3)ncc2F)cc1OC (stereo not drawn) [R926734, N2-[3-(N-2,3-Dihydroxypropylamino)carbonylmethyleneoxyphenyl]-N4-(3,4-dimethoxyphenyl)-5-fluoro-2,4-pyrimidinediamine]	4.49	> 10		
COc1cc(-c2ccccc2)c(C)cc1Nc1ncc(C)c(Nc2cc(C)c(-c3ccccc3)cc2OC)n1 [R935003, N2,N4-Bis[(4-phenyl-2-methoxy-5-methyl)phenyl]-5-methyl-2,4-pyrimidinediamine]	> 10	> 10		
CNC(=O)CCn1ncc2cc(Nc3ncc(F)c(Nc4cccc(O)c4)n3)ccc21 [R935305, 5-Fluoro-N4-(3-hydroxyphenyl)-N2-[1-[2(N-methylaminocarbonyl)ethyl]-indazoline-5-yl]-2,4-pyrimidinediamine]	0.495	> 10		
O=C1COc2ccc(Nc3ncc(F)c(Nc4cccc(O)c4)n3)cc2N1 [R909268, N2-(1,4-Benzoxazin-3-on-6-yl)-5-fluoro-N4-(3-hydroxyphenyl)-2,4-pyrimidinediamine]	0.071	> 10		
CNC(=O)COc1cccc(Nc2nc(Nc3cc(OC)cc(OC)c3)ncc2F)c1 [R926810, N2-(3,5-Dimethoxyphenyl)-N4-[3-(N-methylamino)carbonylmethyleneoxyphenyl)-5-fluoro-2,4-pyrimidinediamine]	1.22	> 10		
CCOC(=O)c1cnc(N[C@H](C(=O)OCC)C(C)C)nc1N[C@H](C(=O)OCC)C(C)C [R926527, 2,4-Bis[N-(L)-valinylethyl ester]-5-ethoxycarbonylpyrimidine]	> 10	> 10		

More lines, now with the values ahead:

IC50 [1] [µM]	IC50 [2] [µM]	IC50 ([1]; Homo sapiens, Mast cell) [µM]	IC50 ([2]; Homo sapiens, Mast cell) [µM]	Compound
> 10	> 10			Cn1ncc2cc(Nc3ncc(F)c(Nc4ccc(Cl)c(Cl)c4)n3)ccc21 [R935355, N4-(3,4-Dichlorophenyl)-5-fluoro-N2-(1-methylindazoline-5-yl)-2,4-pyrimidinediamine]
1.18	> 10			N#CCOc1ccc(Nc2nc(Nc3ccc4c(c3)OCCO4)ncc2F)cc1 [R945172, N4-(4-Cyanomethyleneoxyphenyl)-N2-(3,4-ethylenedioxyphenyl)-5-fluoro-2,4-pyrimidinediamine]
> 10	> 10			O=C(COc1cccc(Nc2ncc(F)c(Nc3ccc4c(c3)C(=O)OC4)n2)c1)NCC(O)CO (stereo not drawn) [R940293, N4-(3,3-Dihydroisobenzofuran-1-one-6-yl)-N2-[3-(N-2,3-dihydroxypropylamino)carbonylmethyleneoxyphenyl]-5-fluoro-2,4-pyrimidinediamine]
0.274	> 10			Fc1cnc(Nc2ccc3[nH]ncc3c2)nc1Nc1ccc2c(c1)OC(F)(F)O2 [R935373, N4-(3,4-Difluoromethylendioxyphenyl)-5-fluoro-N2-(indazoline-5-yl)-2,4-pyrimidinediamine]
		10	> 10	CNc1ncc(F)c(Nc2ccc3c(c2)OCCO3)n1 [R950189]
0.71	> 10			CS(=O)(=O)Nc1cccc(Nc2ncc(F)c(Nc3cccc(NS(C)(=O)=O)c3)n2)c1 [R950100]
1.01	> 10			CCOC(=O)COc1cccc(Nc2ncc(F)c(Nc3cc(C)c(O)c(C)c3)n2)c1 [R940253, N4-(3,5-Dimethyl-4-hydroxyphenyl)-N2-(3-ethoxycarbonylmethyleneoxyphenyl)-5-fluoro-2,4-pyrimidinediamine]
0.585	> 10			CC(CO)Nc1cccc(Nc2ncc(F)c(Nc3cccc(NC(C)CO)c3)n2)c1 (stereo not drawn) [R950171, N2,N4-Bis[3-N-(2-hydroxy-1-methylethyl)aminophenyl]-5-fluoro-2,4-pyrimidinediamine]
